Measured values taken from PubChem BioAssay (NCI).
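Following 48 hours of exposure in 96-well plates, responses at five concentrations were used to interpolate endpoints linearly. TGI is the concentration that stops growth completely.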

How the values were obtained:
Test in all cases: NCI tumour cell line growth inhibition, 48 h
[1] = system: OVCAR-5 ovarian
[2] = system: SN12C renal
[3] = system: RXF 393 renal
[4] = system: CCRF-CEM leukemia
[5] = system: DLD-1 colon
[6] = system: SNB-75 CNS
[7] = system: HT29 colon
[8] = system: OVCAR-3 ovarian
[9] = system: KM20L2 colon
[10] = system: NCI-H226 lung
[11] = system: HOP-62 NSCLC
[12] = system: SK-MEL-28 melanoma
[13] = system: HCT-116 colon
[14] = system: P388/ADR leukemia
[15] = system: SW-620 colon
[16] = system: K-562 leukemia
[17] = system: SN12K1 renal
[18] = system: MOLT-4 leukemia
[19] = system: KM12 colon
[20] = system: NCI/ADR-RES ovarian
[21] = system: DMS 114 small cell lung
[22] = system: U251 CNS
[23] = system: HCT-15 colon
[24] = system: MCF7 breast
[25] = system: SNB-78 CNS
[26] = system: LOX IMVI melanoma
[27] = system: CAKI-1 renal
[28] = system: NCI-H522 lung
[29] = system: SK-MEL-5 melanoma
[30] = system: SF-295 CNS
[31] = system: SK-MEL-2 melanoma
[32] = system: A549 NSCLC
[33] = system: NCI-H460 lung
[34] = system: UO-31 renal
[35] = system: IGROV1 ovarian
[36] = system: HOP-18 NSCLC
[37] = system: UACC-257 melanoma
[38] = system: MALME-3M melanoma
[39] = system: A498 renal
[40] = system: P388 leukemia
[41] = system: HOP-92 NSCLC
[42] = system: HL-60(TB) leukemia
[43] = system: NCI-H23 lung
[44] = system: HCC-2998 colon
[45] = system: UACC-62 melanoma
[46] = system: DMS 273 small cell lung
[47] = system: RPMI-8226 leukemia
[48] = system: EKVX NSCLC
[49] = system: SF-539 CNS
[50] = system: SNB-19 CNS
[51] = system: XF 498 CNS
[52] = system: OVCAR-8 ovarian
[53] = system: COLO 205 colon
[54] = system: OVCAR-4 ovarian
[55] = system: SK-OV-3 ovarian
[56] = system: M19-MEL melanoma
[57] = system: SF-268 CNS

## CCC(C(C)N1CC(=O)NC(=O)C1)N1CC(=O)NC(=O)C1 (configuration not stated)
[1]
  TGI: > 100 µM
[2]
  TGI: > 100 µM
[3]
  TGI: > 100 µM
[4]
  TGI: > 100 µM
[5]
  TGI: > 100 µM
[6]
  TGI: > 100 µM
[7]
  TGI: > 100 µM
[8]
  TGI: > 100 µM
[9]
  TGI: > 100 µM
[10]
  TGI: > 100 µM
[11]
  TGI: > 100 µM
[12]
  TGI: > 100 µM
[13]
  TGI: > 100 µM
[14]
  TGI: > 100 µM
[15]
  TGI: > 100 µM
[16]
  TGI: > 100 µM
[17]
  TGI: > 100 µM
[18]
  TGI: > 100 µM
[19]
  TGI: > 100 µM
[20]
  TGI: > 100 µM
[21]
  TGI: > 95 µM
[22]
  TGI: > 100 µM
[23]
  TGI: > 100 µM
[24]
  TGI: > 100 µM
[25]
  TGI: > 100 µM
[26]
  TGI: > 100 µM
[27]
  TGI: > 100 µM
[28]
  TGI: > 63.5 µM
[29]
  TGI: > 100 µM
[30]
  TGI: > 100 µM
[31]
  TGI: > 100 µM
[32]
  TGI: > 100 µM
[33]
  TGI: > 100 µM
[34]
  TGI: > 100 µM
[35]
  TGI: > 100 µM
[36]
  TGI: > 100 µM
[37]
  TGI: > 100 µM
[38]
  TGI: > 100 µM
[39]
  TGI: > 100 µM
[40]
  TGI: > 75.9 µM
[41]
  TGI: > 100 µM
[42]
  TGI: > 100 µM
[43]
  TGI: > 100 µM
[44]
  TGI: > 100 µM
[45]
  TGI: > 100 µM
[46]
  TGI: > 100 µM
[47]
  TGI: > 100 µM
[48]
  TGI: > 30 µM
[49]
  TGI: > 100 µM
[50]
  TGI: > 100 µM
[51]
  TGI: > 100 µM
[52]
  TGI: > 100 µM
[53]
  TGI: > 27.9 µM
[54]
  TGI: > 100 µM
[55]
  TGI: > 100 µM
[56]
  TGI: > 100 µM
[57]
  TGI: > 100 µM
